# Columns and labels:
# [1] = Liver microsomal metabolism stability test, rat; type: in vitro ADME; settings: rat liver microsomes, 60 min
# Protocol: (§1) The purpose of this experiment was to detect the stability of the example compounds in liver microsomes of rats, dogs and humans.
# (§2) • Formulation of working solution of compounds: compound stock solution was added to phosphate buffer to a final concentration of 20 μM.
# (§3) Dilution was performed with 100 mM phosphate buffer to a final concentration of 0.625 mg/mL.
# (§4) NADPH (reduced nicotinamide adenine dinucleotide phosphate) and UDPGA (uridine diphosphate glucuronic acid) were weighed, 100 mM phosphate buffer was added, and the final concentration was 20 mM.
# (§5) 1 mg of Alamethicin was weighed, and 200 μL of DMSO was added to formulate a 5 mg/mL solution. Then dilution was performed with phosphate buffer to a final concentration of 50 μg/mL.
# (§6) Stop solution: the stop solution contains 100 ng/mL labetalol hydrochloride and 400 ng/mL tolbutamide and cold acetonitrile as internal standard.
# (§7) 400 μL of formulated liver microsomes, 25 μL of compound working solution and 25 μL of Alamethicin were added in sequence to the 96-well plate, and pre-incubated at 37° C. for 10 min. Then 50 μL of formulated NADPH/UDPGA was added to start the reaction and the mixture was incubated at 37° C. The total volume of the reaction system was 500 μL. The final contents of each component are as follows:
# (§8) • Instrument: Shimadzu LC-30 AD; • Chromatographic column: XBridge® C18 (50*4.6 mm, 5 μm particle size); • Mobile phase: A: 0.1% formic acid solution, B: methanol Wash gradient: 0.2-1.6 min 5% A to 95% A, 3.0-3.1 min 95% A to 5% A Run time: 4.0 min.
# (§9) • Instrument: API5500 liquid chromatography mass spectrometer, AB Sciex; • Ion source: electrospray ionization source (ESI); • Drying gas: N2, temperature 500° C.; • Electrospray voltage: 5000 V; • Detection mode: positive ion detection; • Scanning mode: reaction monitoring (MRM) mode.
# [2] = Liver microsomal metabolism stability test, dog; type: in vitro ADME; settings: dog liver microsomes, 60 min
# Protocol: as §1, §2, §3, §4, §5, §6, §7, §8, §9
# [3] = Liver microsomal metabolism stability test, human; type: in vitro ADME; settings: human liver microsomes, 60 min
# Protocol: as §1, §2, §3, §4, §5, §6, §7, §8, §9
# [4] = tested on: spontaneously hypertensive rat (SHR) model; test: Pharmacodynamic evaluation on blood pressure in spontaneously hypertensive rats; type: in vivo; settings: P.O, 30 mpk, 1-8 h after administration, P<0.05
# From the text: This experiment used a spontaneously hypertensive rat (SHR) model to evaluate the pharmacodynamic effect of the test compounds on the blood pressure and heart rate of the model.
# Kent Scientific CODA non-invasive blood pressure system.
# Spontaneously hypertensive rats (SHR) were provided by Beijing Vital River Laboratory Animal Technology Co., Ltd., male, 150-200 g, 13-15 weeks old, 50 rats.
# After animals arrived at the experimental facility, the animals were adapted to the animal facility for 5-7 days. 4.2 After the adaptation period, the animals were adapted to the tail oversleeve restrain for 3 days, and the tail oversleeve restrain was performed twice a day. After the last restrain adaptation, the basal blood pressure was measured, and the animals were randomly divided into groups according to the basal blood pressure. There was no significant difference between the average systolic blood pressure of animals in each group, and the number of animals in each group met the requirements of statistical testing and pharmacodynamic guidelines. 4.3 On the second day after grouping, the animals were administered according to experimental design and grouping (P.O, 5 mL/kg), and the systolic blood pressure (SBP), diastolic blood pressure (DBP), mean arterial pressure (MAP) and heart rate (HR) of the animals were measured before administration and at 1, 2, 4, 6, 8 and 24 h after administration using tail oversleeve method.
# Statistical differences between groups were analyzed by Two-way ANOVA test. Among them, P<0.05 indicated a significant difference, and P<0.01 indicated an extremely significant difference.
structure (smiles),measurement,setting,value
"CCCCC1=NC2(CCCC2)C(=O)N1Cc1ccc(-c2ccccc2S(=O)(=O)Nc2noc(C)c2Cl)c(COCC)c1 [Example 45, 2-[4-[(2-butyl-4-oxo-1,3-diazaspiro[4.4]non-1-en-3-yl)methyl]-2-(ethoxymethyl)phenyl]-N-(4-chloro-5-methyl-isoxazol-3-yl)benzsulfamide]",Remaining rate,[1],23.3%
same,Remaining rate,[2],23.6%
same,Remaining rate,[3],32.0%
same,"blood pressure (systolic blood pressure, diastolic blood pressure, mean arterial pressure) compared with the vehicle group",[4],significantly reduced blood pressure
